Results from ChEMBL document CHEMBL5370598, “[3H]UR-JG102-A Radiolabeled Cyclic Peptide with High Affinity and Excellent Selectivity for the Neuropeptide Y Y4 Receptor” (J Med Chem, 2023).

Columns and labels:
[1] = target: T1, Neuropeptide Y receptor type 4 (Homo sapiens, UniProt P50391); experiment: Binding affinity to human Y4R under sodium free condition
[2] = target: T1, Neuropeptide Y receptor type 4; experiment: (§1) Displacement of [3H]-(9S,12S,15S,19R,E)-4-amino-N-((S)-1-(((S)-1-(((S)-1-amino-3-(4-hydroxyphenyl)-1-oxopropan-2-yl)amino)-5-guanidino-1-oxopentan-2-yl)amino)-4-methyl-1-oxopentan-2-yl)-15-(3-guanidinopropyl)-12-(4-hydroxybenzyl)-2,11,14,17,20-pentaoxo-19-(4-(propanamido-2,3-t2)butanamido)-1,3,5,10,13,16,21-heptaazacyclopentacos-3-ene-9-carboxamide from human Y4R expressed in CHO cells coexpressing Gqi5-mtAEQ under hypotonic sodium free buffer condition; type: cell-based
[3] = target: T1, Neuropeptide Y receptor type 4; experiment: as §1, with “isotonic” for “hypotonic”, “containing” for “free”; type: cell-based
[4] = target: T1, Neuropeptide Y receptor type 4; experiment: Binding affinity to human Y4R under 150 mM sodium condition
[5] = target: T1, Neuropeptide Y receptor type 4; experiment: Agonist activity at human Y4R expressed in HEK293T cells incubated for 60 mins by cAMP CAMYEN assay; type: functional, cell-based
[6] = species: Homo sapiens; experiment: Selectivity ratio of pKi for human Y5R to pKi for human Y4R
[7] = target: T1, Neuropeptide Y receptor type 4; experiment: Binding affinity to human Y4R expressed in CHO cells co-expressing Gqi5-mtAEQ assessed as Kon under sodium free buffer condition; type: cell-based; details: filed as agonist, tested as the 3H-labelled form
[8] = target: T2, Neuropeptide Y receptor type 5 (Homo sapiens, UniProt Q15761); experiment: Displacement of [3H]propionyl-pNPY from human Y5R expressed in HEC-1B cells; type: cell-based, HEC-1B cell line
T2 sequence (Q15761 whole entry): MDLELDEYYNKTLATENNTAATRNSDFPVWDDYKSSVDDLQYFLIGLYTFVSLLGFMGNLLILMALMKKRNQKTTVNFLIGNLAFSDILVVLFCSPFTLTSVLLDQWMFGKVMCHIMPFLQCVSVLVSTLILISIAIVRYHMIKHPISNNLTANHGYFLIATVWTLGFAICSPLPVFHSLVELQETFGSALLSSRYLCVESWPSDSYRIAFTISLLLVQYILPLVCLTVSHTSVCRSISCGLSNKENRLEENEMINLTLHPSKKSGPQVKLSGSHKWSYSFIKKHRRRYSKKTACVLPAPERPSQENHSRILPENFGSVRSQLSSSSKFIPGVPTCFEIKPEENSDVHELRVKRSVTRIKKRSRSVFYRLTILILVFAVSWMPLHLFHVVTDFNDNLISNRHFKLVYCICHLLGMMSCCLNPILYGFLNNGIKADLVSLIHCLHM

[9] = target: T1, Neuropeptide Y receptor type 4; experiment: Binding affinity to human Y4R expressed in CHO cells co-expressing Gqi5-mtAEQ assessed as Kon preincubated for 2 hrs under DPBS condition; type: cell-based; details: filed as agonist, tested as the 3H-labelled form
[10] = target: T1, Neuropeptide Y receptor type 4; experiment: Agonist activity at human Y4R expressed in HEK293T cells by miniGsi assay; type: functional, cell-based
[11] = target: T1, Neuropeptide Y receptor type 4; experiment: Binding affinity to human Y4R expressed in CHO cells co-expressing Gqi5-mtAEQ assessed as observed association rate constant under sodium free buffer condition; type: cell-based; details: filed as agonist, tested as the 3H-labelled form
[12] = species: Homo sapiens; experiment: Selectivity ratio of pKi for human Y1R to pKi for human Y4R
[13] = target: T1, Neuropeptide Y receptor type 4; experiment: Agonist activity at human Y4R expressed in HEK293T cells by miniGsi assay relative to control; type: functional, cell-based; details: filed as agonist
[14] = target: T1, Neuropeptide Y receptor type 4; experiment: Displacement of [3H]UR-KK200 from human Y4R expressed in CHO cells co-expressing Gqi5-mtAEQ; type: cell-based
[15] = target: T1, Neuropeptide Y receptor type 4; experiment: Binding affinity to human Y4R expressed in CHO cells co-expressing Gqi5-mtAEQ assessed as Kon preincubated for 20 mins under DPBS condition; type: cell-based; details: filed as agonist, tested as the 3H-labelled form
[16] = target: T1, Neuropeptide Y receptor type 4; experiment: Agonist activity at human Y4R expressed in HEK293T cells incubated for 60 mins by cAMP CAMYEN assay relative to control; type: functional, cell-based; details: filed as agonist
[17] = target: T1, Neuropeptide Y receptor type 4; experiment: Agonist activity at human Y4R expressed in CHO cells co-expressing Gqi5-mtAEQ by calcium2+ aequorin assay; type: functional, cell-based
[18] = target: T3, Neuropeptide Y receptor type 2 (Homo sapiens, UniProt P49146); experiment: Displacement of [3H]propionyl-pNPY from human Y2R expressed in CHO cells; type: cell-based
T3 sequence (P49146 whole entry): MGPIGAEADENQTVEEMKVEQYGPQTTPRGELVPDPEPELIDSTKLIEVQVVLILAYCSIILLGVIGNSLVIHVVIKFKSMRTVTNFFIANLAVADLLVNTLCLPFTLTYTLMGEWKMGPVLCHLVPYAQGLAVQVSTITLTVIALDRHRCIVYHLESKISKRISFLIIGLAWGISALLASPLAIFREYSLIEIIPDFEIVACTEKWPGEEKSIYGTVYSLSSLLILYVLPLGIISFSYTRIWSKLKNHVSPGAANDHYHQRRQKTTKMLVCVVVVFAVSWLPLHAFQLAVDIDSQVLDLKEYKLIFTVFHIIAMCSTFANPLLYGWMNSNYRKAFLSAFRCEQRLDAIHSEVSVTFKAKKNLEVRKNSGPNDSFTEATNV

[19] = target: T1, Neuropeptide Y receptor type 4; experiment: Binding affinity to human Y4R expressed in CHO cells co-expressing Gqi5-mtAEQ assessed as Koff preincubated for 2 hrs under DPBS condition; type: cell-based; details: filed as agonist, tested as the 3H-labelled form
[20] = target: T1, Neuropeptide Y receptor type 4; experiment: Binding affinity to human Y4R expressed in CHO cells co-expressing Gqi5-mtAEQ assessed as Koff under sodium free buffer condition; type: cell-based; details: filed as agonist, tested as the 3H-labelled form
[21] = species: Homo sapiens; experiment: Selectivity ratio of pKi for human Y2R to pKi for human Y4R
[22] = Chemical stability in PBS buffer at pH 7.4 after 48 hrs by RP-HPLC analysis; type: physicochemical; details: pH 7.4, 48 h
[23] = target: T1, Neuropeptide Y receptor type 4; experiment: Binding affinity to human Y4R expressed in CHO cells co-expressing Gqi5-mtAEQ assessed as observed association rate constant preincubated for 20 mins under DPBS condition; type: cell-based; details: filed as agonist, tested as the 3H-labelled form
[24] = target: T1, Neuropeptide Y receptor type 4; experiment: Binding affinity to human Y4R expressed in CHO cells co-expressing Gqi5-mtAEQ assessed as Koff preincubated for 20 mins under DPBS condition; type: cell-based; details: filed as agonist, tested as the 3H-labelled form
[25] = target: T4, Neuropeptide Y receptor type 1 (Homo sapiens, UniProt P25929); experiment: Displacement of [3H]UR-MK299 from human Y1R expressed in SK-N-MC cells; type: cell-based
T4 sequence (P25929 whole entry): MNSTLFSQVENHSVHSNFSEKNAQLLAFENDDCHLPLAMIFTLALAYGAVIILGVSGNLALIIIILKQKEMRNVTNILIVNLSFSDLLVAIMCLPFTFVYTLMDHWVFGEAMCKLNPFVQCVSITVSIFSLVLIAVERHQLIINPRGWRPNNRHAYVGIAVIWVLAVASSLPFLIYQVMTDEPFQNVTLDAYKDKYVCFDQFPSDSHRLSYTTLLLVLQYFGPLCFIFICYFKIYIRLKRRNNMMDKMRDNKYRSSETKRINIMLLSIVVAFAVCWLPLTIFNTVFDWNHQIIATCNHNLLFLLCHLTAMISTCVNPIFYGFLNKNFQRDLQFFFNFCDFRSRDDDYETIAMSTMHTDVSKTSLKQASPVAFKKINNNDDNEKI

[26] = target: T1, Neuropeptide Y receptor type 4; experiment: Agonist activity at human Y4R expressed in CHO cells co-expressing Gqi5-mtAEQ by calcium2+ aequorin assay relative to control; type: functional, cell-based; details: filed as agonist

T1 sequence (P50391 whole entry): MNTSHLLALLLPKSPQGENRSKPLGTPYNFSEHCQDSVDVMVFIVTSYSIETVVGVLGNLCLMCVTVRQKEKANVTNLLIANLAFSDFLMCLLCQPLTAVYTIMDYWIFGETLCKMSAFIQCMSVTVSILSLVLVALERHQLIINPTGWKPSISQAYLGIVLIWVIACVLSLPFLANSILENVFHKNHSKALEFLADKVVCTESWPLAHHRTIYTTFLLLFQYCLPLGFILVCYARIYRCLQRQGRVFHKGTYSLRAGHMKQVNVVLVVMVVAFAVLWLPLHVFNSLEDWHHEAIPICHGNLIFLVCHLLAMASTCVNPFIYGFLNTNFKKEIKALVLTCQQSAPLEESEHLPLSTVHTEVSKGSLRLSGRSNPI

Compound: [3H]CC([3H])C(=O)NCCCCNC(=O)/N=C(\N)NCCCC[C@H](NC(=O)[C@H](Cc1ccc(O)cc1)NC(=O)CCCCCCC(=O)N[C@@H](Cc1ccc(O)cc1)C(=O)N[C@@H](CCCNC(=N)N)C(=O)N[C@@H](CC(C)C)C(=O)N[C@@H](CCCNC(=N)N)C(=O)N[C@@H](Cc1ccc(O)cc1)C(N)=O)C(=O)N[C@@H](CC(C)C)C(=O)N[C@@H](CCCNC(=N)N)C(=O)N[C@@H](Cc1ccc(O)cc1)C(N)=O (stereo partly specified)
- Kd [1]: 0.67 nM
- Ki ([2]; read-out: Ki): 0.41 nM
- Ki ([2]; read-out: pKi (converted)): 0.209 nM
- Ki ([3]; read-out: Ki): 6.7 nM

Compound: [3H]CC([3H])C(=O)NCCCC[C@H](NC(=O)[C@H](CC(C)C)NC(=O)[C@@H]1CCCN1C(=O)[C@H](C)N)C(=O)N1CCC[C@H]1C(=O)N[C@H](C(=O)N[C@@H](Cc1ccc(O)cc1)C(=O)N1CCC[C@H]1C(=O)NCC(=O)N[C@@H](CC(=O)O)C(=O)N[C@@H](CC(N)=O)C(=O)N[C@@H](C)C(=O)N[C@H](C(=O)N1CCC[C@H]1C(=O)N[C@@H](CCC(=O)O)C(=O)N[C@@H](CCC(N)=O)C(=O)NC(CCCC)C(=O)N[C@@H](C)C(=O)N[C@@H](CCC(N)=O)C(=O)N[C@@H](Cc1ccc(O)cc1)C(=O)N[C@@H](C)C(=O)N[C@@H](C)C(=O)N[C@@H](CC(N)=O)C(=O)N[C@@H](CC(C)C)C(=O)N[C@@H](CCCNC(=N)N)C(=O)N[C@@H](CCCNC(=N)N)C(=O)N[C@@H](Cc1ccc(O)cc1)C(=O)N[C@H](C(=O)N[C@@H](CC(N)=O)C(=O)NC(CCCC)C(=O)N[C@@H](CC(C)C)C(=O)N[C@H](C(=O)N[C@@H](CCCNC(=N)N)C(=O)N1CCC[C@H]1C(=O)N[C@@H](CCCNC(=N)N)C(=O)N[C@@H](Cc1ccc(O)cc1)C(N)=O)[C@@H](C)O)[C@@H](C)CC)[C@@H](C)O)C(C)C (stereo partly specified)
- Kd [1]: 1.1 nM
- Kd [4]: 20.9 nM

Compound: CCC(=O)NCCCC(=O)N[C@@H]1CC(=O)N[C@@H](CCCNC(=N)N)C(=O)N[C@@H](Cc2ccc(O)cc2)C(=O)N[C@H](C(=O)N[C@@H](CC(C)C)C(=O)N[C@@H](CCCNC(=N)N)C(=O)N[C@@H](Cc2ccc(O)cc2)C(N)=O)CCCN/C(N)=N/C(=O)NCCCCNC1=O.O=C(O)C(F)(F)F.O=C(O)C(F)(F)F.O=C(O)C(F)(F)F
- EC50 ([5]; read-out: EC50): 0.17 nM
- EC50 ([5]; read-out: pEC50 (converted)): 0.126 nM
- Ratio pKi [6]: > 27000
- Ratio pKi ([6]; tested as the 3H-labelled form): > 27000
- K [7]: 6.83e+07 M⁻¹ s⁻¹
- Ki ([2]; read-out: Ki): 0.01 nM
- Ki ([2]; read-out: pKi (converted)): 0.00891 nM
- Ki ([3]; read-out: Ki): 0.088 nM
- Ki ([3]; read-out: pKi (converted)): 0.0832 nM
- Ki ([8]; hec-1b cell line, read-out: Ki): > 1000 nM
- Ki ([8]; read-out: pKi (converted)): > 1000 nM
- K [9]: 1.17e+07 M⁻¹ s⁻¹
- EC50 [10]: 5.1 nM
- K [11]: 0.071 min⁻¹
- Ratio pKi [12]: > 27000
- Ratio pKi ([12]; tested as the 3H-labelled form): > 27000
- Emax [13]: 60%
- Ki ([14]; read-out: Ki): 0.036 nM
- Ki ([14]; read-out: pKi (converted)): 0.0316 nM
- K [15]: 1.4e+08 M⁻¹ s⁻¹
- Emax [16]: 83%
- EC50 ([17]; read-out: EC50): 5.4 nM
- EC50 ([17]; read-out: pEC50 (converted)): 5.13 nM
- Ki ([18]; read-out: Ki): > 3000 nM
- Ki ([18]; read-out: pKi (converted)): > 3160 nM
- K [19]: 0.059 min⁻¹
- K [20]: 0.009 min⁻¹
- Ratio pKi [21]: > 27000
- Ratio pKi ([21]; tested as the 3H-labelled form): > 27000
- Stability [22]: Stable
- K [23]: 0.54 min⁻¹
- K [24]: 0.12 min⁻¹
- Ki ([25]; read-out: pKi (converted)): > 1000 nM
- Ki ([25]; sk-n-mc, read-out: Ki): > 1000 nM
- Emax [26]: 65%
